Data reported in the supplement of paper PMC10307832.

Tests used:
Assay in all cases: relative viability (nuclei count vs DMSO), 5 days (fraction); higher = more cells survive
[1] = compound: CC1=CC(=NN1)NC2=CC(=NC(=N2)/C=C/C3=CC=CC=C3)N4CCN(CC4)C + CS(=O)(=O)CCNCc1ccc(-c2ccc3ncnc(Nc4ccc(OCc5cccc(F)c5)c(Cl)c4)c3c2)o1 [Lapatinib] (partner 2 µM)
How it was run: (§1)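 For relative viability, nuclei counts in treated wells were divided by those in vehicle wells. Lung cancer cell lines had been pin-tool dosed in 1536-well plates the day after seeding and cultured for 5 days, then fixed and stained in one step (final 0.05% Triton X-100, 1% formaldehyde, 1 ug/ml Hoechst) and imaged at 4×. Doses were one drug alone or a fixed anchor-drug dose plus five library-drug doses (not always all listed) in √10 steps, and values are duplicate-plate medians.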

[2] = compound: CC1=CC(=NN1)NC2=CC(=NC(=N2)/C=C/C3=CC=CC=C3)N4CCN(CC4)C + Cc1nc(Nc2ncc(C(=O)Nc3c(C)cccc3Cl)s2)cc(N2CCN(CCO)CC2)n1 [Dasatinib] (partner 0.075 µM)
How it was run: as §1

[3] = compound: CC1=CC(=NN1)NC2=CC(=NC(=N2)/C=C/C3=CC=CC=C3)N4CCN(CC4)C + C[C@]1(O)C[C@@H](c2nc(-c3ccc4ccc(-c5ccccc5)nc4c3)c3c(N)nccn32)C1 [Linsitinib] (partner 1 µM)
How it was run: as §1

Bortezomib + Phenformin = compound: CC(C)C[C@H](NC(=O)[C@H](Cc1ccccc1)NC(=O)c1cnccn1)B(O)O [Bortezomib] + N=C(N)NC(=N)NCCc1ccccc1 [Phenformin] (partner 250 µM)
How it was run: as §1

NCI-H650
relative viability ([1]; first compound 0.08 µM): 0.804 | relative viability ([1]; first compound 0.253 µM): 1.15 | relative viability ([1]; first compound 0.8 µM): 0.839 | relative viability ([1]; first compound 2.53 µM): 0.378 | relative viability ([1]; first compound 8 µM): 0.271 | relative viability ([2]; first compound 0.253 µM): 0.507 | relative viability ([2]; first compound 0.8 µM): 0.517 | relative viability ([2]; first compound 2.53 µM): 0.352 | relative viability ([2]; first compound 8 µM): 0.195 | relative viability ([3]; first compound 0.08 µM): 0.674 | relative viability ([3]; first compound 0.253 µM): 1.06 | relative viability ([3]; first compound 0.8 µM): 0.777 | relative viability ([3]; first compound 2.53 µM): 0.278 | relative viability ([3]; first compound 8 µM): 0.202 | relative viability (Bortezomib + Phenformin; first compound 0.000632 µM): 0.431 | relative viability (Bortezomib + Phenformin; first compound 0.002 µM): 0.461 | relative viability (Bortezomib + Phenformin; first compound 0.006325 µM): 0.38 | relative viability (Bortezomib + Phenformin; first compound 0.02 µM): 0.203
